Structures can show the parent of a compound that is named as a salt. Active and inactive are the calls of the source.
Assays:
[1] = A cytotoxicity screen of small molecule inhibitors of the PhoP region in Salmonella typhi identified in the primary screen. [Related pubchem assays: 1850, 1864, 1985 ]; type: functional
[2] = target: T1, Carboxy-terminal domain RNA polymerase II polypeptide A small phosphatase 1 (Homo sapiens, UniProt Q9GZU7); assay: CTDSP1 inhibitors, concentration-response, biochemical, absorbance readout, ultra-high-throughput screen actives (AID 540297); type: functional
T1 sequence (Q9GZU7 whole entry): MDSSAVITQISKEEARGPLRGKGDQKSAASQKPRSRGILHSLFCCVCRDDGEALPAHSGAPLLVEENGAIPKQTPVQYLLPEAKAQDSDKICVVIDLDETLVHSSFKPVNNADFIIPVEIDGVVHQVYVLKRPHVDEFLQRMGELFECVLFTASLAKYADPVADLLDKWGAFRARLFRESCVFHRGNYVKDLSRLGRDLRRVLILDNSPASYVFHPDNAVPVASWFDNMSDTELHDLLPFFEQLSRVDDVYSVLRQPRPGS

Hexokinase = target: T2, Hexokinase (Trypanosoma brucei, UniProt Q38C41); assay: Confirmation assay for inhibitors of Trypanosoma brucei hexokinase 1-Analogue-first series. [Related pubchem assays (depositor defined):AID1430, AID1632, AID2516, AID2560, AID2579, AID2600, AID449725, AID492951]; type: functional
T2 sequence (Q38C41 whole entry): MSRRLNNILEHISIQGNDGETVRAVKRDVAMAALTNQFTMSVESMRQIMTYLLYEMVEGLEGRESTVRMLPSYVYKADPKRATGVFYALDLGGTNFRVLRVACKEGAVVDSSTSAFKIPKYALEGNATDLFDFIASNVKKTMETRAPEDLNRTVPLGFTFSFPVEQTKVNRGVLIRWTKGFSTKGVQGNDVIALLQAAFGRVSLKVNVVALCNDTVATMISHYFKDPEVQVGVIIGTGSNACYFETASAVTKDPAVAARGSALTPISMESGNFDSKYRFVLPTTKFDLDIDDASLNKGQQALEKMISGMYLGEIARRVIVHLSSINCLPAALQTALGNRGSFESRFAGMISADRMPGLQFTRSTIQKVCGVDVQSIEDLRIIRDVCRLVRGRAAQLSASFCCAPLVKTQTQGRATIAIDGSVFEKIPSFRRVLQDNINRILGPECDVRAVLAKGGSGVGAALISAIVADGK

Coagulation factor XII = target: T3, Coagulation factor XII (Homo sapiens, UniProt P00748); type: functional;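 further: activated factor XIIa alpha cleaving a fluorogenic AMC peptide substrate; inhibitor potency from loss of enzyme activity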
T3 sequence (P00748 whole entry): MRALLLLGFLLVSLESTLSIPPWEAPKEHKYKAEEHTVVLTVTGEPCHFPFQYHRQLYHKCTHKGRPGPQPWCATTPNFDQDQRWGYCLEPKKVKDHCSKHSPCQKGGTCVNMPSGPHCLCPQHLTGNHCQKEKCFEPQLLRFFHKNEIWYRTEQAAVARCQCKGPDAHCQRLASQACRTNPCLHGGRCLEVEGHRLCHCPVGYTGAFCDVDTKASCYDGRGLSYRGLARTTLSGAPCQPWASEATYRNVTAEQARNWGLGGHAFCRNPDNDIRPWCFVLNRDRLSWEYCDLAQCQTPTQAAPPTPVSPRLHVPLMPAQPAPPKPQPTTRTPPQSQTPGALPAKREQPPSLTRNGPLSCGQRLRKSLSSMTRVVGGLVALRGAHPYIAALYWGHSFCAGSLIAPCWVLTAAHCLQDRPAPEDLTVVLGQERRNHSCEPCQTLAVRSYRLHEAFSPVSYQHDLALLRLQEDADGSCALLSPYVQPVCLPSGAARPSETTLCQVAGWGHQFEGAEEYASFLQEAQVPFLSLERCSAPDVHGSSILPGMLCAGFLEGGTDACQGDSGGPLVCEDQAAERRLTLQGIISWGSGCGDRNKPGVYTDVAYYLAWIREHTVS

[3] = target: Voltage-gated inwardly rectifying potassium channel KCNH2 (Homo sapiens, UniProt Q12809); conditions: Potency;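 further: confirmatory quantitative high-throughput screen measuring inhibition of hERG channel activity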
Voltage-gated inwardly rectifying potassium channel KCNH2, sequence (Q12809 whole entry): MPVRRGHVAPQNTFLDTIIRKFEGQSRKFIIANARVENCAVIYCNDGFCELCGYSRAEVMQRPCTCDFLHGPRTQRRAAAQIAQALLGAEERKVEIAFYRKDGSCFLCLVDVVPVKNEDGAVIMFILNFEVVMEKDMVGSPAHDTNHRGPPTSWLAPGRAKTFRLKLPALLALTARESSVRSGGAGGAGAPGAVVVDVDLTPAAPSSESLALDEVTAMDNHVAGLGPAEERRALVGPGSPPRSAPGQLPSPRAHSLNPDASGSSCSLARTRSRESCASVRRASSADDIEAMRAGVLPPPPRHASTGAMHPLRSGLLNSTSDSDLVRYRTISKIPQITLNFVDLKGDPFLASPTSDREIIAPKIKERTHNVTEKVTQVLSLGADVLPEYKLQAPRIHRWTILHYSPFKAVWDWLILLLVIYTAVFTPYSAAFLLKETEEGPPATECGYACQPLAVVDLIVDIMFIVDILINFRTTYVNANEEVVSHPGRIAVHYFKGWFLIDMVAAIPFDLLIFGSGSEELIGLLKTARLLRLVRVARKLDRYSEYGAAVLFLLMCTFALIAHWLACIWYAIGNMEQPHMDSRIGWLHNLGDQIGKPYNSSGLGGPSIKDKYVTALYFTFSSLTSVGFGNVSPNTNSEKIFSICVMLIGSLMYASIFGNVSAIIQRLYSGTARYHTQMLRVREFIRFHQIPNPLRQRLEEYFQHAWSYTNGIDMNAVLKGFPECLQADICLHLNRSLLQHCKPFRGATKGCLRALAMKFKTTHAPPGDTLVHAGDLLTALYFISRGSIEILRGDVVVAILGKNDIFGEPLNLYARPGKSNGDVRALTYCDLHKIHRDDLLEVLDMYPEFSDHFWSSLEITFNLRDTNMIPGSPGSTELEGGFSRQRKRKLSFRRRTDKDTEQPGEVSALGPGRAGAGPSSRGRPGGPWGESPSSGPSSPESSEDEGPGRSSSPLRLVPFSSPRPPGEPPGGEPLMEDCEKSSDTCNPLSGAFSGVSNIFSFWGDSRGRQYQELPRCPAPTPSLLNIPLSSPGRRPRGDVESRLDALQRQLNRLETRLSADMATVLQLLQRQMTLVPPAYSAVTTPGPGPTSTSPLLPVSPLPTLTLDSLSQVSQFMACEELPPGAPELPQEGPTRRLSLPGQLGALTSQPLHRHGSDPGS

[4] = target: T4, Ubiquitin-conjugating enzyme E2 N (Homo sapiens, UniProt P61088); type: functional;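 further: Dose-response confirmation in a TR-FRET assay detecting UBC13-driven polyubiquitin chain formation, inhibition measured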
T4 sequence (P61088 whole entry): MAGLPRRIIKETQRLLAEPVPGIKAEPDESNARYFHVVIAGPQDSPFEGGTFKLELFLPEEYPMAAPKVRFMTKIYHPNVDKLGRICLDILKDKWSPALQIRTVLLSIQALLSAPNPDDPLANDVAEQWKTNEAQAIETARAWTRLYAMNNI

[5] = target: T5, Short transient receptor potential channel 4 (Mus musculus, UniProt Q9QUQ5); assay: block of DAMGO-driven TRPC4 calcium entry – cell-based, HEK293 TRPC4/mu-opioid, Fluo-4 calcium, dose response (AID 434942); type: functional;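 further: potency of inhibitors blocking the TRPC4 calcium response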
T5 sequence (Q9QUQ5 whole entry): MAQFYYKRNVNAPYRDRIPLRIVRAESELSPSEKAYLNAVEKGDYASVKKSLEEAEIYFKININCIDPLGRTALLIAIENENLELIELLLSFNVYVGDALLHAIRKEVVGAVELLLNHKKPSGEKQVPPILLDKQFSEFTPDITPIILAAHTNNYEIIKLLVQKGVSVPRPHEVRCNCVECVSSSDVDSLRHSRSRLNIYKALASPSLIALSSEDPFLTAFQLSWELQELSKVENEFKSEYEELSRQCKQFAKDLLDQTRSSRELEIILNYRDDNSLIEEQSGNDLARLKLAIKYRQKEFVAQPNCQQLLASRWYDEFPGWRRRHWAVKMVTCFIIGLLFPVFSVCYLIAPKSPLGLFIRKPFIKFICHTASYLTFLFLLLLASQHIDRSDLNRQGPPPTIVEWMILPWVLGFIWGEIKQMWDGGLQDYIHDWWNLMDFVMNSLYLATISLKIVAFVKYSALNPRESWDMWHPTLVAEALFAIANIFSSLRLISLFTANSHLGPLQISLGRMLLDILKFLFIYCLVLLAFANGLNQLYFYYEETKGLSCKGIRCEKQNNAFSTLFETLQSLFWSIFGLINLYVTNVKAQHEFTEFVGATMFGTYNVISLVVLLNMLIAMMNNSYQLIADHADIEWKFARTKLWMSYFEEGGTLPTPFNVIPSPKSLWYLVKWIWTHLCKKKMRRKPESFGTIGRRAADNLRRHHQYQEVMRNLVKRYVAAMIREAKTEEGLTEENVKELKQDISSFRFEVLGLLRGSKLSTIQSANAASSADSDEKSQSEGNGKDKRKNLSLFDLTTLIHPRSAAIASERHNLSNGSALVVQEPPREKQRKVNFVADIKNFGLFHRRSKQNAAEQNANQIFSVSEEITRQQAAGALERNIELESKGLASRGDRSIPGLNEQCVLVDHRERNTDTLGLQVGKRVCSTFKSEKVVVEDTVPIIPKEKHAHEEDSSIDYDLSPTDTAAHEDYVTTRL

BJ [6] = assay: BJ-TERT-LT-ST fibroblast viability loss – cell-based, RAS-independent, luminescence, dose response (AID 1935); type: functional; conditions: Homo sapiens;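 further: BJ fibroblasts immortalized with TERT plus LT and ST oncogenes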
BJ [7] = assay: cells; type: functional, cell-based; conditions: Homo sapiens
BJ [8] = assay: BJ-TERT fibroblast viability loss – cell-based, RAS-independent, luminescence, dose response (AID 1933); type: functional; conditions: Homo sapiens
[9] = DRD fibroblast viability loss – cell-based, non-viral oncogenic, luminescence, dose response (AID 1934); type: functional; conditions: Homo sapiens
[10] = target: Peroxisome proliferator-activated receptor gamma/Nuclear receptor coactivator 3 (Homo sapiens, UniProt P37231); type: functional;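 further: agonist potency for raising coactivator recruitment to the receptor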
Peroxisome proliferator-activated receptor gamma/Nuclear receptor coactivator 3, sequence (P37231 whole entry): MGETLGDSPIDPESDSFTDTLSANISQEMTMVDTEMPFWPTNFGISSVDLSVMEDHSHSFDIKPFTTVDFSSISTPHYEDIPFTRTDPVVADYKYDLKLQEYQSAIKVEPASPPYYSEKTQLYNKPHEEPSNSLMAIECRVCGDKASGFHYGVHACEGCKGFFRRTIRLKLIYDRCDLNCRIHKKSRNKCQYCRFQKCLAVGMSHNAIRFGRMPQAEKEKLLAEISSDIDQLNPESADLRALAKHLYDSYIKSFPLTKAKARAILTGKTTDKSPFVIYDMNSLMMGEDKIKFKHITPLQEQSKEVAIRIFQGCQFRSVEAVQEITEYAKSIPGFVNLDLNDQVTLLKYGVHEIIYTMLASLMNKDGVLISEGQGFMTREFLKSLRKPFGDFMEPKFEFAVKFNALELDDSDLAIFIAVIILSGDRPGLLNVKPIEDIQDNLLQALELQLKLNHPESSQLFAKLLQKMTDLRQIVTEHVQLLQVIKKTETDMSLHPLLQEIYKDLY
Peroxisome proliferator-activated receptor gamma/Nuclear receptor coactivator 3, sequence (Q9Y6Q9 whole entry, further chain): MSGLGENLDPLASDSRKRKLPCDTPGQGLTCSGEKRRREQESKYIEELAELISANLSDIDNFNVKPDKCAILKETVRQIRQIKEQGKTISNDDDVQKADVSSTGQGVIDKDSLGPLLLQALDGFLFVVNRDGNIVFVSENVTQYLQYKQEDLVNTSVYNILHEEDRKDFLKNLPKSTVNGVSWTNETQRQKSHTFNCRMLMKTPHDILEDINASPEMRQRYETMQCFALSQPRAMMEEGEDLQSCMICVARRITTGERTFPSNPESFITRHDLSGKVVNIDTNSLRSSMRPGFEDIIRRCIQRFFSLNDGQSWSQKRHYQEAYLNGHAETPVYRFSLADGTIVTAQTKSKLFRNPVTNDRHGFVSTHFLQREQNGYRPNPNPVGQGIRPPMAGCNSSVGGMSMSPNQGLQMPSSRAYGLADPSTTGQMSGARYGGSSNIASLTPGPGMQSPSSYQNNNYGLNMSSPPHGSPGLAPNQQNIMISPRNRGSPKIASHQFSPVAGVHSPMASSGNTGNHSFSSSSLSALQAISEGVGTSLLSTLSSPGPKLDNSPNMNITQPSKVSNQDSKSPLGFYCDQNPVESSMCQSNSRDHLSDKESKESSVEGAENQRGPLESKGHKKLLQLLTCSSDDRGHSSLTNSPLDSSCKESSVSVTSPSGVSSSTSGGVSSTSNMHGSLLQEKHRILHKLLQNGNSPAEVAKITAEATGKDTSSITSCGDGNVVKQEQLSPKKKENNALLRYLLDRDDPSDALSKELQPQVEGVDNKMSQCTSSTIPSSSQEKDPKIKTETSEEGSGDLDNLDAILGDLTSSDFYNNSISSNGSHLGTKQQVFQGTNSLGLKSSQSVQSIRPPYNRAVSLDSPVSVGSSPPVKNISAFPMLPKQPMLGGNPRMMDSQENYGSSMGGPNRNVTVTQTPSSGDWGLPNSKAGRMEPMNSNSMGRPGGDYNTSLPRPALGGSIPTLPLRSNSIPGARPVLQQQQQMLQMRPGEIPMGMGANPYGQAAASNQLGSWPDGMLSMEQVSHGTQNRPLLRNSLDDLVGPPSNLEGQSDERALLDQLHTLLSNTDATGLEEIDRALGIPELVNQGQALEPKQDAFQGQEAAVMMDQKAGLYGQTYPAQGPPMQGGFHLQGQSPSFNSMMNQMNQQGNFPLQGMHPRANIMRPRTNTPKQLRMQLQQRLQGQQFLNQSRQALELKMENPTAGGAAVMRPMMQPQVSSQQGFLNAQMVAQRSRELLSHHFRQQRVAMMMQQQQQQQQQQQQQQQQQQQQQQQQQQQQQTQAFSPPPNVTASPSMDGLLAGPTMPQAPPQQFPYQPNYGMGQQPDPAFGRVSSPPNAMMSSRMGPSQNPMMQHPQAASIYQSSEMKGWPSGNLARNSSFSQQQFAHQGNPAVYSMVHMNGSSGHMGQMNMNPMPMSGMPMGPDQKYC

[11] = target: Peroxisome proliferator-activated receptor gamma/Nuclear receptor coactivator 2 (Homo sapiens, UniProt P37231); type: functional;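 further: agonist potency for raising coactivator recruitment to the receptor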
[12] = target: Peroxisome proliferator-activated receptor gamma/Nuclear receptor coactivator 1 (Homo sapiens, UniProt P37231); type: functional;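 further: agonist potency as compounds enhance coactivator SRC-1 recruitment to PPARgamma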
Peroxisome proliferator-activated receptor gamma/Nuclear receptor coactivator 1, sequence (P37231 whole entry): as the sequence (P37231 whole entry) above
Peroxisome proliferator-activated receptor gamma/Nuclear receptor coactivator 1, sequence (Q15788 whole entry, further chain): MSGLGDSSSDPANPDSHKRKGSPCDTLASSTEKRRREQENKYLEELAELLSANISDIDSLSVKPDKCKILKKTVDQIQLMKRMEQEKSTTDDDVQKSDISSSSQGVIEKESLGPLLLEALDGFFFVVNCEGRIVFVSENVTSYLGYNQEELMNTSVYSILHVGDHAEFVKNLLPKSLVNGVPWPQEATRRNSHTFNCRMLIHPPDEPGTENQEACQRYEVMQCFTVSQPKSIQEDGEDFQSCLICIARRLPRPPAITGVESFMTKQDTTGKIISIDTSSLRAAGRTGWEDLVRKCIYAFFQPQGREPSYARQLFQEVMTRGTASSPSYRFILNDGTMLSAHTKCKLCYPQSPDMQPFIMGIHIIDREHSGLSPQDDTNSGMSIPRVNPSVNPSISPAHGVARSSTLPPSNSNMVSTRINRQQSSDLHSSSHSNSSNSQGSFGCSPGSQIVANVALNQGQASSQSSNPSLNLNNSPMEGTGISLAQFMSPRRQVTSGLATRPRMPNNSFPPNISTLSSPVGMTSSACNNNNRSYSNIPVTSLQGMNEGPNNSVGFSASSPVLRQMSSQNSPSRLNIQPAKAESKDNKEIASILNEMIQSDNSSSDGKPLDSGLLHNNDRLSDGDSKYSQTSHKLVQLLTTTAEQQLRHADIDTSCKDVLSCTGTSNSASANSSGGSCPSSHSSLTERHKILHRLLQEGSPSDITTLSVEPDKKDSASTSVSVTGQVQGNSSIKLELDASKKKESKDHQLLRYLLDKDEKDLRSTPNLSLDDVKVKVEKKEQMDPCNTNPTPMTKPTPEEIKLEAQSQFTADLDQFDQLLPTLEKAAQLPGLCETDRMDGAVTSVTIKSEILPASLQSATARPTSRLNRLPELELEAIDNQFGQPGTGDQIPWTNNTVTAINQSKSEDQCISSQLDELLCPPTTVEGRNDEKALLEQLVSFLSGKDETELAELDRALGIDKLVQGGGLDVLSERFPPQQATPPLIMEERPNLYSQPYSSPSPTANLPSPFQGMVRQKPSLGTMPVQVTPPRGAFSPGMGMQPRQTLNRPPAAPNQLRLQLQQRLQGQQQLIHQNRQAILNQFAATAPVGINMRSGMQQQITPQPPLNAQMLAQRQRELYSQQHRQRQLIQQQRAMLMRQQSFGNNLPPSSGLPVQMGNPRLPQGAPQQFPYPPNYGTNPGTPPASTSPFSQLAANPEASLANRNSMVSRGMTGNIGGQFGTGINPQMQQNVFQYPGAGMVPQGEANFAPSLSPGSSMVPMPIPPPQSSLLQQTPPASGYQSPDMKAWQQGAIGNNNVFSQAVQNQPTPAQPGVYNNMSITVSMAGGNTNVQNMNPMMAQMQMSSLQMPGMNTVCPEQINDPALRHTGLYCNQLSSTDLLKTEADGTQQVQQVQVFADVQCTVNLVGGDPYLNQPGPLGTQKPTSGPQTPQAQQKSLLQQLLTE

[13] = decrease of insulin promoter-GFP reporter – imaging, high-content screening, mouse beta cells (AID 1628); type: functional; conditions: MIN6
INS1 = assay: INS-1E survival protection against cytokine death – cell-based, luminescence, retest, dose response (AID 449756); type: functional; conditions: Rattus norvegicus;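 further: cell death triggered by IL-1 beta plus TNF-alpha plus IFN-gamma mixture; protective hits raise ATP signal compared with cytokine alone wells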
[14] = MIN6 cell viability loss – mouse insulinoma, cytotoxicity control, dose response (AID 2122); type: functional;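 further: confirmatory high-throughput counterscreen run to flag cytotoxic compounds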
[15] = Luminescence Cell-Based Dose Retest to Confirm Inhibitors of Cancer Stem Cells. [Related pubchem assays (depositor defined):AID2717, AID2721]; type: functional; conditions: Homo sapiens
[16] = Trypanosoma cruzi growth suppression in host cells – NIH3T3 host cells, beta-gal luminescence, confirmation (AID 2044); type: functional, cell-based;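 further: intracellular parasites grown in NIH/3T3 mouse fibroblasts as host cells; luminescent beta-galactosidase reporter signal from transgenic T. cruzi replicating inside host cells; inhibitors lower the luminescence signal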
[17] = NIH3T3 cell viability loss – ATP luminescence, mouse fibroblasts, counter-screen, dose response (AID 2010); type: functional, cell-based;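 further: cells exposed to compound for about 90 hours before reading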

With `CCCC1(c2ccccc2)NC(=O)N(CC(=O)Nc2cc(S(=O)(=O)N3CCOCC3)ccc2Cl)C1=O` (centres undefined) the EC50 [1] was > 50 µM (active).
With `Cc1nn(CCc2nnn[nH]2)c2nc(-c3ccccc3)cc(C(F)(F)F)c12` the IC50 [2] was 7.45 µM (active).
For `CC(C)(C)c1ccc(C(=O)Nc2cc(Cl)ccc2O)cc1`, the IC50 (Hexokinase) was 25 µM (inactive).
In the case of `O=C(NNc1cc(Cl)ccc1Cl)c1c(F)cccc1Cl`, the IC50 (Coagulation factor XII) is reported as > 50 µM (inactive).
In the case of `NCCNS(=O)(=O)c1cccc2c(Cl)cccc12`, the AC50 [3] is reported as 22.4 µM (inconclusive).
In the case of `CN(C)CCCCSC(=N)N`, the AC50 [3] is reported as 35.5 µM (inconclusive).
In the case of `CC(C)(C)Cc1nnc(NC(=O)Cc2cccs2)s1`, the IC50 [2] is reported as 4.36 µM (active).
With `O=C(COc1cccnc1[N+](=O)[O-])Nc1ncc(Cl)cc1Cl` the IC50 [2] was 6.27 µM (active).
With `CCCCCCNC(=O)N[C@@H](C(=O)NCCC[C@H]1CN2C(=NC[C@@H]2Cc2ccccc2)N1CCc1cccc(OC)c1)C(C)C` the IC50 [4] was > 20 µM (inactive).
For `O=C(Cn1sc2ccccc2c1=O)Nc1ccccc1I`, the IC50 (Hexokinase) was 4.75 µM (active).
With `COc1ccc(-n2c3c(cc(C(=O)NCc4ccco4)c2=O)C(=O)CC(C)(C)C3)cc1` the EC50 [5] was 3.76 µM (active).
With `COC(=O)Cc1ccc(NC(S)=NCc2ccc(Cl)cc2)cc1` the EC50 [1] was > 50 µM (active).
With `COc1cc(OC)cc(C(=O)Nc2ccc(NC(=O)c3ccco3)c(C)c2)c1` the EC50 (BJ [6]) was 19.5 µM (active), the EC50 (BJ [7]) was 10.1 µM (active) and the EC50 (BJ [8]) was 15.2 µM (active). For the same compound, the EC50 [9] was 9.93 µM (active).
With `COc1cccc(-c2ccc(SCc3ccccn3)nn2)c1` the EC50 [1] was > 50 µM (active).
In the case of `Cc1ccc(C)c2[nH]c(=O)c(CN(Cc3nnnn3C3CCCCC3)CC3CCCO3)cc12` (centres undefined), the IC50 (Coagulation factor XII) is reported as > 50 µM (inactive) and the EC50 [5] is reported as 1.68 µM (active).
For `COc1ccc(OC)c(NC(=O)CSc2nnc(N)s2)c1`, the EC50 [10] was > 79.4 µM (not active), the EC50 [11] was > 79.4 µM (not active) and the EC50 [12] was > 79.4 µM (not active).
With `COc1ccc(C(=O)Nc2cc(I)ccc2C(=O)O)cc1` the IC50 (Hexokinase) was 14.2 µM (active).
In the case of `COCCn1c(SCc2ccc(F)cc2)nc2ccccc2c1=O`, the EC50 [5] is reported as 2.37 µM (active).
For `COc1ccc(-c2[nH]c3ccccc3c2SCCNC(=O)c2ccccc2)cc1`, the EC50 [10] was < 79.4 µM (not active), the EC50 [11] was 33.6 µM (not active) and the EC50 [12] was 39.5 µM (not active).
In the case of `O=C(Nc1ccncc1)Nc1ccc(Cl)cc1`, the EC50 [1] is reported as > 50 µM (active).
With `COc1cccc2cc(-c3csc(NC(=O)CCC(=O)NCCCN4CCC(C)CC4)n3)c(=O)oc12` the EC50 (BJ [6]) was > 150 µM (not active), the EC50 (BJ [7]) was 13.3 µM (active) and the EC50 (BJ [8]) was 12.7 µM (active). For the same compound, the EC50 [9] was 11.5 µM (active).
For `CCCC(C)NC(=O)Cc1ccccc1` (centres undefined), the IC50 (Coagulation factor XII) was > 50 µM (inactive).
In the case of `O=C1c2ccccc2C(=O)N1OS(=O)(=O)c1ccccc1`, the IC50 (Coagulation factor XII) is reported as 1.61 µM (active).
In the case of `NS(=O)(=O)c1ccc(N/N=C/c2cn(-c3ccccc3)nc2-c2cccs2)c([N+](=O)[O-])c1`, the IC50 [13] is reported as 1.43 µM (active), the AC50 (INS1) is reported as 4.07 µM (active) and the IC50 [14] is reported as 4.7 µM (active). The AC50 [15] was 1.39 µM (active), the EC50 (BJ [6]) was 6.17 µM (inconclusive) and the EC50 [16] was 0.846 µM (active). For the same compound, the EC50 (BJ [7]) was 19.4 µM (active), the EC50 (BJ [8]) was 4.24 µM (active) and the EC50 [17] was 12.4 µM (active). The EC50 [9] was 8.22 µM (active).
For `CCn1cc(/C=C/C(=O)Nc2ccn(Cc3c(F)c(F)c(F)c(F)c3F)n2)cn1`, the EC50 [10] was > 79.4 µM (not active), the EC50 [11] was > 79.4 µM (not active) and the EC50 [12] was > 79.4 µM (not active).
With `CCOC(=O)C1=C(C)c2ccccc2OC1(C(=O)OCC)c1ccccc1` (centres undefined) the IC50 [2] was 34.2 µM (active).
In the case of `CCc1ccc2c(c1)cc(CN(C(=S)Nc1ccc(Cl)cc1)C1CC1)c1nnnn12`, the EC50 [10] is reported as 11.6 µM (not active), the EC50 [11] is reported as 8.9 µM (active) and the EC50 [12] is reported as 11.5 µM (not active).
In the case of `Cc1nc(N)sc1C(=O)N/N=C/c1ccco1`, the IC50 [4] is reported as > 20 µM (inactive).
With `CCN(CC)CCNC(=O)c1cc(S(C)(=O)=O)ccc1OC` [TIAPRIDE HYDROCHLORIDE] the AC50 [3] was 35.5 µM (inconclusive).
For `O=C1c2cccc(Br)c2SCN1c1ccccc1`, the IC50 (Hexokinase) was > 25 µM (inactive).

— ChEMBL document CHEMBL1201862, “PubChem BioAssay data set” (2004)
